From patent US9034886B2, “4-aminoquinazoline derivatives and uses thereof” (Shanghai Institute of Pharmaceutical Industry, priority 2011, dated 2015)
Read-outs that look alike come from different tables or passages of the source.

What was measured:
[1] = system: Hep3B2.1-7 human liver cancer cells; experiment: In vitro anti-proliferative effect, CCK-8 method, Hep3B; assay type: cell-based
Outline: (§1)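 Read-out: CCK-8 viability, expressed as % inhibition; two test concentrations, 100 μM and 10 μM.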

[2] = system: A549 human lung cancer cells; experiment: In vitro anti-proliferative effect, CCK-8 method, A549; assay type: cell-based
Outline: as §1

[3] = system: Colo320 human colorectal cancer cell lines; experiment: In vitro anti-proliferative effect, CCK-8 method, Colo320; assay type: cell-based
Outline: as §1

[4] = system: MDA-MB-435s human breast cancer cells; experiment: In vitro anti-proliferative effect, CCK-8 method, MDA-MB-435s; assay type: cell-based; details: for inhibition at 10 µM / inhibition at 100 µM: Homo sapiens, MDA-MB-435S
Outline: as §1

human PC-3 tumors = experiment: Human PC-3 tumors transplanted in nude mice; assay type: in vivo; details: 50 mg/kg; for deaths, PC-3 model: 8 mice in each group
HDACs = experiment: In vitro inhibition of HDACs (HDAC Inhibitor Drug Screening Kit, Biovision K340-100); assay type: biochemical
Procedure: The in vitro inhibitory activities of the compounds towards HDACs were tested according to the instructions in the HDAC Inhibitor Drug Screening Kit (Biovision/Catalog #K340-100).
(1) The compounds to be tested were each individually prepared as 2 mM, 200 μM and 40 μM solutions and their inhibitory activities at these concentrations were tested.

[5] = system: PANC-1 human pancreatic cancer cells; experiment: In vitro anti-proliferative effect, CCK-8 method, PANC-1; assay type: cell-based; details: for inhibition at 10 µM / inhibition at 100 µM: Homo sapiens, PANC-1
Outline: as §1

human A549 tumors = experiment: Human A549 tumors transplanted in nude mice; assay type: in vivo; details: 50 mg/kg; for tumor inhibition %, A549 (lung cancer) / deaths, A549 model: nude mice; for deaths, A549 model: 8 mice in each group
[6] = system: Hut78 T lymphocytic leukemia cells; experiment: In vitro anti-proliferative effect, CCK-8 method, Hut78; assay type: cell-based; details: for inhibition at 10 µM / inhibition at 100 µM: read-out: Hut-78 (inhibition %)
Outline: (§2)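 Percent growth inhibition, measured with CCK-8, in Hut78 and K562 leukemia cells at two compound concentrations, 10 μM and 100 μM.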

[7] = system: K562 human chronic myelogenous leukemia cells; experiment: In vitro anti-proliferative effect, CCK-8 method, K562; assay type: cell-based; details: for IC50 / inhibition at 10 µM / inhibition at 100 µM: Homo sapiens, K562
Outline: as §2

[8] = system: Jurkat E6-1 human T-cell lymphoma; experiment: In vitro anti-proliferative effect, CCK-8 method, Jurkat E6-1; assay type: cell-based
Outline: as §1

[9] = system: PC-3 human prostate cancer; experiment: In vitro anti-proliferative effect, CCK-8 method, PC-3; assay type: cell-based
Outline: as §1

HDAC1 = HDAC1 (Homo sapiens (Human), UniProt Q13547); experiment: In vitro inhibition of subtype HDAC1 (HDAC1 Inhibitor Drug Screening Kit, Biovision); assay type: biochemical; details: for inhibition at 1 µM / inhibition at 10 µM: read-out: % Inhibition towards HDAC1
HDAC1, sequence (Q13547 whole entry): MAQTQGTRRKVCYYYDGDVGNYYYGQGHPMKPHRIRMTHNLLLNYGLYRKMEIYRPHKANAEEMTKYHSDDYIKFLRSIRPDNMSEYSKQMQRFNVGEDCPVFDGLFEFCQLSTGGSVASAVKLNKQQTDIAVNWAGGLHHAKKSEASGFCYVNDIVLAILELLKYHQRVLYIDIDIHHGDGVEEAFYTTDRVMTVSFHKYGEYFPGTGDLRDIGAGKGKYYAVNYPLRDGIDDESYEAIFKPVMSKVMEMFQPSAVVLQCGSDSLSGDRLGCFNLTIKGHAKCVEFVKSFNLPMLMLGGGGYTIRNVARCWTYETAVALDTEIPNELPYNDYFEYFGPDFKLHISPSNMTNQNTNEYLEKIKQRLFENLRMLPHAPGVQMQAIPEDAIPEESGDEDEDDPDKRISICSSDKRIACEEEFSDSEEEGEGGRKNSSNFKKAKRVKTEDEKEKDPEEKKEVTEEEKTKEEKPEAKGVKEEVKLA
Procedure: The in vitro inhibitory activities of the compounds towards the subtype HDAC1 were tested according to the instructions in the HDAC1 Inhibitor Drug Screening Kit (Biovision).
(1) The compounds to be tested were each individually prepared as 10 μM and 1 μM solutions and their inhibitory activities at these concentrations were tested.
Each dilution sample was placed in two wells and the enzyme inhibition IC50 of the compound was tested.

[10] = Preliminary pharmacokinetics; details: in vivo, rat
hERG potassium channel = hERG potassium channel (Homo sapiens (Human), UniProt Q12809); experiment: Effects on hERG potassium channel; assay type: cell-based; details: for inhibition at 10 µM: human, hERG potassium current, read-out: Maximum inhibition percentage at 10 μM (%); for IC50: read-out: Half inhibition concentration for the effect on hERG potassium current, IC50
hERG potassium channel, sequence (Q12809 whole entry): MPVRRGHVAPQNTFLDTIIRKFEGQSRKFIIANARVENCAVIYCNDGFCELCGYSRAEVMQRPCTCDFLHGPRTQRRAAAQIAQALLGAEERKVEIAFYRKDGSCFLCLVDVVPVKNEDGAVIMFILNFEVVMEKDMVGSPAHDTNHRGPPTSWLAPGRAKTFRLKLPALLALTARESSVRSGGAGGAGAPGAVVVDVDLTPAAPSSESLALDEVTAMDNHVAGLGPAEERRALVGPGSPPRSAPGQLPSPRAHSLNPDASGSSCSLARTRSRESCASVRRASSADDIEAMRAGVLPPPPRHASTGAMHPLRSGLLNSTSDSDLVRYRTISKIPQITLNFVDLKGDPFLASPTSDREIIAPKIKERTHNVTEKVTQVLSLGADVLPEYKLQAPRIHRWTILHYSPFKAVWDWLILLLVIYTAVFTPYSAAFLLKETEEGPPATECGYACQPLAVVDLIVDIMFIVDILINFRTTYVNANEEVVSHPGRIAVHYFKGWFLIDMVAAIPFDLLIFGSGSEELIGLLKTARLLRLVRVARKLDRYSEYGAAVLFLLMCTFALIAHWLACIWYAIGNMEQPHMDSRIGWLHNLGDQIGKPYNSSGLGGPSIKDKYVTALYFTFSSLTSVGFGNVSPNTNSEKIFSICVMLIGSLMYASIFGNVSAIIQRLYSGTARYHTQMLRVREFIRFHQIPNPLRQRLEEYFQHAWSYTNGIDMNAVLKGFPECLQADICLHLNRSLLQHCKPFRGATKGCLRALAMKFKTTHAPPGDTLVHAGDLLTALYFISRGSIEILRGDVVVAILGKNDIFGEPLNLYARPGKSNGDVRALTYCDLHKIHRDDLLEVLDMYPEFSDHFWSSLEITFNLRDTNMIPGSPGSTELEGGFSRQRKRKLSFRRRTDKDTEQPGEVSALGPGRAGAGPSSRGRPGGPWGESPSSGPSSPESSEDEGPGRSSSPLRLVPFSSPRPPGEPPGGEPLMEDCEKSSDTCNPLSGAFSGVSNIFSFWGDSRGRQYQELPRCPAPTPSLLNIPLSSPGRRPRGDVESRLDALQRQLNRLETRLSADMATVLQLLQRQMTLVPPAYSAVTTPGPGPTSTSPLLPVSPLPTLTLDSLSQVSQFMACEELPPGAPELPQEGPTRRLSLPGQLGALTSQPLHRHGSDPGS

[11] = Maximum tolerance dose through intragastrical administration; assay type: in vivo; details: mice, administrated intragastrically
Outline: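 ICR mice (8˜20 g, both sexes, 10 per group) fasted 6 h, then dosed once intragastrically at 0.3 ml/10 g. Physical signs and deaths recorded at 1, 2 and 4 h, then daily with body weight over 14 days; dead animals necropsied with pathology on suspicious organs.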

[12] = Homo sapiens, Hep3B cell strain, compound at 10 μM, CCK-8 method
[13] = Homo sapiens, Hep3B cell strain, compound at 100 μM, CCK-8 method
[14] = Homo sapiens, COLO 320, Colo320 cell strain, compound at 10 μM, CCK-8 method
[15] = Homo sapiens, COLO 320, Colo320 cell strain, compound at 100 μM, CCK-8 method
[16] = iv, 2 mg/kg, i.v., read-out: Intravenous half-life (converted)
[17] = oral, read-out: Oral half-life (converted)
[18] = Homo sapiens, Jurkat E6.1, 10 μM
[19] = Homo sapiens, Jurkat E6.1, 100 μM
[20] = Homo sapiens, PC-3 cell strain, compound at 10 μM, CCK-8 method
[21] = Homo sapiens, PC-3 cell strain, compound at 100 μM, CCK-8 method

Nc1ccccc1NC(=O)c1ccc(CNC(=O)OCc2cccnc2)cc1 [MS-275, reference compound]
IC50 [1]: 6820 nM | Hep3B (inhibition %) 10 μM ([1]; Hep3B cell strain, compound at 10 μM, CCK-8 method): 10.8% | Hep3B (inhibition %) 100 μM ([1]; Hep3B cell strain, compound at 100 μM, CCK-8 method): 52.1% | IC50 [2]: 2280 nM | A549 (inhibition %) ([2]; 10 μM): 58.9% | A549 (inhibition %) ([2]; 100 μM): 92.3% | IC50 [3]: 522 nM | Colo320 (inhibition %) 10 μM ([3]; Colo320 cell strain, compound at 10 μM, CCK-8 method): 18.0% | Colo320 (inhibition %) 100 μM ([3]; Colo320 cell strain, compound at 100 μM, CCK-8 method): 61.6% | 435s (inhibition %) ([4]; 10 μM): 2.7% | 435s (inhibition %) ([4]; 100 μM): 59.3% | tumor inhibition %, PC-3 (human prostate cancer) (human PC-3 tumors): 89.60% | deaths, PC-3 model (human PC-3 tumors): 4 | IC50 (HDACs): 3520 nM | Inhibition percentage (%) towards HDACs (HDACs; 40 μM): 32.5% | Inhibition percentage (%) towards HDACs (HDACs; 200 μM): 60.5% | Inhibition percentage (%) towards HDACs (HDACs; 2 mM): 82.2% | PANC-1 (inhibition %) ([5]; 10 μM): 12.4% | PANC-1 (inhibition %) ([5]; 100 μM): 31.6% | tumor inhibition %, A549 (lung cancer) (human A549 tumors): 79.41% | deaths, A549 model (human A549 tumors): 3 | IC50 [6]: 528 nM | Hut-78 (inhibition %) ([6]; 100 μM): 85.3% | K562 (inhibition %) ([7]; 10 μM): 66.2% | K562 (inhibition %) ([7]; 100 μM): 74.6% | IC50 [8]: 561 nM | Jurkat E6-1 (inhibition %) ([8]; 10 μM): 89.5% | Jurkat E6-1 (inhibition %) ([8]; 100 μM): 96.1% | IC50 [9]: 502 nM | PC-3 (inhibition %) 10 μM ([9]; PC-3 cell strain, compound at 10 μM, CCK-8 method): 12.5% | PC-3 (inhibition %) 100 μM ([9]; PC-3 cell strain, compound at 100 μM, CCK-8 method): 71.5%

Nc1ccccc1NC(=O)c1ccc(CNc2ncnc3ccccc23)cc1 [Compound V-27, N-(2-aminophenyl)-4-[(quinazoline-4-amino)methyl]benzamide]
IC50 ([1]; Homo sapiens, Hep3B): 1520 nM | inhibition at 10 µM [1, 12]: -12.3% | inhibition at 100 µM [1, 13]: 68.3% | IC50 ([2]; Homo sapiens, A549): 3140 nM | inhibition at 10 µM ([2]; Homo sapiens, A549, 10 μM): 82.8% | inhibition at 100 µM ([2]; Homo sapiens, A549, 100 μM): 97.7% | IC50 (HDAC1): 212 nM | inhibition at 1 µM (HDAC1): 58.3% | inhibition at 10 µM (HDAC1): 83% | inhibitory activity against HDAC1 compared with MS-275 (HDAC1; both concentrations 10 μM and 1 μM): superior to that of MS-275 | inhibition at 10 µM [3, 14]: 60% | inhibition at 100 µM [3, 15]: 82.3% | inhibition at 10 µM ([4]; 10 μM): 28.5% | inhibition at 100 µM ([4]; 100 μM): 76.3% | half-life [10, 16]: 0.95 h | bioavailability ([10]; oral): 28.6% | half-life [10, 17]: 3.37 h | IC50 (HDACs): 1310 nM | inhibitory activity according to in vitro IC50 value against HDACs compared with MS-275 (HDACs): better inhibitory activities than MS-275 | Inhibition percentage (%) towards HDACs (HDACs; 40 μM): 73.2% | Inhibition percentage (%) towards HDACs (HDACs; 200 μM): 82.6% | Inhibition percentage (%) towards HDACs (HDACs; 2 mM): 91.9% | inhibitory activity on HDACs compared with MS-275 (HDACs; concentrations of 2 mM, 200 μM, and 40 μM): significantly stronger inhibitory activities than MS-275 | inhibition at 10 µM ([5]; 10 μM): 44.4% | inhibition at 100 µM ([5]; 100 μM): 69.5% | inhibition at 10 µM (hERG potassium channel): 29.9 ± 6.7% | IC50 (hERG potassium channel): > 10000 nM | antitumor effect on nude mice xenograft model A549 (human A549 tumors): significantly inhibit the growth of tumor | mortality and weight loss in nude mice (human A549 tumors): no mortality and significant weight loss | tumor inhibition %, A549 (lung cancer) (human A549 tumors): 61.83% | deaths, A549 model (human A549 tumors): no death | IC50 ([6]; Homo sapiens, HuT78): 356 nM | inhibition at 10 µM ([6]; Homo sapiens, HuT78): 69.2% | inhibition at 100 µM ([6]; Homo sapiens, HuT78, 100 μM): 89.3% | IC50 [7]: 437 nM | inhibition at 10 µM ([7]; 10 μM): 45% | inhibition at 100 µM ([7]; 100 μM): 75% | IC50 ([8]; Homo sapiens, Jurkat E6.1): 458 nM | inhibition at 10 µM [8, 18]: 31.6% | inhibition at 100 µM [8, 19]: 87.6% | maximum tolerance dose [11]: over 2000 mg/kg | inhibition at 10 µM [9, 20]: 43.8% | inhibition at 100 µM [9, 21]: 59.9%

COc1cccc2c(Nc3ccc(C(=O)Nc4ccccc4N)cc3)ncnc12 [Compound V-9, N-(2-aminophenyl)-4-(8-methoxy-quinazoline-4-amino)benzamide]
IC50 ([1]; Homo sapiens, Hep3B): 52200 nM | inhibition at 10 µM [1, 12]: 27% | inhibition at 100 µM [1, 13]: 26.2% | IC50 ([2]; Homo sapiens, A549): 29900 nM | inhibition at 10 µM ([2]; Homo sapiens, A549, 10 μM): 24.6% | inhibition at 100 µM ([2]; Homo sapiens, A549, 100 μM): 42.3% | inhibition at 1 µM (HDAC1): 33.8% | inhibition at 10 µM (HDAC1): 58.3% | IC50 ([3]; Homo sapiens, COLO 320): 88400 nM | inhibition at 10 µM [3, 14]: 4.4% | inhibition at 100 µM [3, 15]: 4.2% | inhibition at 10 µM ([4]; 10 μM): -11.9% | inhibition at 100 µM ([4]; 100 μM): 11.8% | half-life [10, 16]: 1.27 h | bioavailability ([10]; oral): 19% | half-life [10, 17]: 4.53 h | tumor inhibition %, PC-3 (human prostate cancer) (human PC-3 tumors): 36.97% | deaths, PC-3 model (human PC-3 tumors): no death | IC50 (HDACs): 4910 nM | Inhibition percentage (%) towards HDACs (HDACs; 40 μM): 1.9% | Inhibition percentage (%) towards HDACs (HDACs; 200 μM): 7.8% | Inhibition percentage (%) towards HDACs (HDACs; 2 mM): 50.0% | inhibition at 10 µM ([5]; 10 μM): 22.3% | inhibition at 100 µM ([5]; 100 μM): 26.4% | inhibition at 10 µM (hERG potassium channel): 21.5 ± 0.4% | IC50 (hERG potassium channel): > 10000 nM | IC50 ([6]; Homo sapiens, HuT78): 231 nM | inhibition at 10 µM ([6]; Homo sapiens, HuT78): 10.8% | inhibition at 100 µM ([6]; Homo sapiens, HuT78, 100 μM): 94% | IC50 [7]: 19900 nM | inhibition at 10 µM ([7]; 10 μM): -2.8% | inhibition at 100 µM ([7]; 100 μM): 30.3% | IC50 ([8]; Homo sapiens, Jurkat E6.1): 12400 nM | inhibition at 10 µM [8, 18]: 0.9% | inhibition at 100 µM [8, 19]: 22.8% | maximum tolerance dose [11]: over 5000 mg/kg | IC50 ([9]; Homo sapiens): 12200 nM | inhibition at 10 µM [9, 20]: 5.1% | inhibition at 100 µM [9, 21]: 19.3%
